Experimental data: article PMC11452715, “Pharmacokinetic and pharmacodynamic evaluation of various vasopressin doses and routes of administration in a neonatal piglet model” (Scientific Reports, 2024)

Columns and labels:
[1] = test system: patients < 18 years of age; design: method as in PMID 21926666; details: vasopressin (0.8 IU/kg) after an initial epinephrine dose (n = 10) vs ≥ 2 doses of epinephrine; cited from earlier work
Source text: (§1) Vasopressin, an antidiuretic hormone, might be an alternative to epinephrine, as its efficacy is not impaired during metabolic or respiratory acidosis[3],[4],[9].

[2] = test system: adults with out-of-hospital cardiac arrest; design: method as in PMID 14711909; details: adults with asystolic arrest, cited from earlier work; for rate of survival to hospital admission: p = 0.02; for rate of survival to discharge: p = 0.04
Source text: as §1

[3] = Plasma vasopressin concentrations (ELISA) and non-compartmental pharmacokinetic analysis in neonatal piglets; assay type: in vivo, piglet; details: for plasma vasopressin concentrations compared to IV vasopressin / plasma concentrations compared to IV vasopressin / Cmax: ELISA; for Tmax compared to IV vasopressin: p < 0.05; for Cmax: pig, plasma, mean (SD), SD
Description: (§2) Piglets were randomized into four routes and various vasopressin doses: (1) IV vasopressin (0.4IU/kg; n = 5, control), (2) IO vasopressin (n = 5/dose; 0.2IU/kg, 0.4IU/kg, or 0.8IU/kg), (3) ETT vasopressin (n = 5/dose; 4IU/kg, 8IU/kg, or 16IU/kg), (4) IN vasopressin (n = 3/dose; 8IU/kg, 16IU/kg, or 32IU/kg). In all groups, a 3mL saline bolus was administered immediately after the vasopressin dose[20],[21].
(§3) Preliminary tests on a few piglets were conducted to determine the optimal ETT vasopressin doses. […] All piglets, regardless of randomization, underwent insertion of an intraosseous needle during surgical instrumentation to ensure each piglet underwent similar surgical procedures. Arterial blood was collected before vasopressin administration (baseline), 1, 2, 3, 4, 5, and 10 min after vasopressin administration. Following final collection of blood, piglets were euthanized with an intravenous overdose of sodium pentobarbital (100 mg/kg).
(§4) Demographics of study piglets were recorded. Transonic flow probes, heart rate, and pressure transducer outputs, and Millar catheter were digitized and recorded with LabChart® programming software (ADInstruments, Houston, TX). Blood samples were collected and centrifuged at 11,000 rpm for five minutes, plasma was then separated and stored at -80 °C. Concentrations of vasopressin were quantified using commercially available ELISA kits (K049-H1, Arbor Assays, Ann Arbor, Michigan, USA). Analysis of pharmacokinetic parameters was performed with the Non-Compartmental Analysis program of the SimBiology Model Analyzer app within MATLAB (MATLAB ver. R2023b, MathWorks, Natick, MA, USA).
The data was tested for normality (Shapiro-Wilk and Kolmogorov-Smirnov test) and compared using ANOVA for repeated measures using Tukey post-test for parametric and Dunn’s test for nonparametric comparisons of continuous variables, and Fisher’s exact test for categorical variables. The data are presented as mean (standard deviation - SD) for normally distributed continuous variables and median (interquartile range - IQR) when the distribution was skewed. P-values are 2-sided and p < 0.05 was considered statistically significant. Statistical analyses were performed with SigmaPlot (Systat Software Inc, San Jose, USA).

[4] = test system: pediatric patients; details: 0.4IU/kg/dose IV as rescue therapy; cited from earlier work
Source text: Vasopressin, an antidiuretic hormone, might be an alternative to epinephrine, as its efficacy is not impaired during metabolic or respiratory acidosis[3],[4],[9]. […] Similarly, in a case series of four pediatric patients’ vasopressin at 0.4IU/kg/dose IV administered as rescue thera ...

[5] = 0.8IU/kg IV vasopressin, four hours after resuscitation; cited from earlier work
Source text: This may result from the non-statistically significant lower baseline ejection fraction in 0.4IU/kg IO vasopressin piglets compared to 0.8IU/kg IO vasopressin piglets (Table 1).

[6] = test system: neonatal piglets; assay: Hemodynamic and cardiac function parameters after vasopressin administration in healthy neonatal piglets; assay type: in vivo, piglet; details: for ejection fraction / cardiac output: one minute after drug administration, n = 5
Source text: Piglets were instrumented as previously described with modifications[15]–[17]. Following the induction of anaesthesia using isoflurane, piglets were intubated via a tracheostomy, and pressure-controlled ventilation (Sechrist Infant Ventilator Model IV-100; Sechrist Industries, Anaheim, California) was commenced at a respiratory rate of 16–20 breaths/min and pressure of 20/5 cmH2O. Oxygen saturation was kept within 90–100%, glucose level and hydration was maintained with an intravenous infusion of 5% dextrose at 10 mL/kg/hr. During the experiment anaesthesia was maintained with intravenous propofol 5–10 mg/kg/hr and morphine 0.1 mg/kg/hr. Additional doses of propofol (1–2 mg/kg) and morphine (0.05–0.1 mg/kg) were also given as needed. The piglet’s body temperature was maintained within a normal porcine temperature range of 38.5–39.5 °C using an overhead warmer and a heating pad.
A 5-French Argyle® (Klein-Baker Medical Inc. San Antonio, TX) double-lumen catheter was inserted via the right femoral vein for administration of fluids and medications. A 5-French Argyle® single-lumen catheter was inserted above the right renal artery via the femoral artery for continuous arterial blood pressure monitoring in addition to arterial blood gas measurements. The right common carotid artery was also exposed and encircled with a real-time ultrasonic flow probe (2 mm; Transonic Systems Inc., Ithica, NY) to measure cerebral blood flow[15]–[17]. A Millar® catheter (MPVS Ultra1, ADInstruments, Houston, TX) was inserted into the left ventricle via the left common carotid artery for continuous measurement of stroke volume, ejection fraction, end-diastolic and -systolic volumes, left ventricular pressure, and left ventricular contractile function (dp/dtmax, dp/dtmin)^19,20.
Piglets were placed in supine position and allowed to recover from surgical instrumentation until baseline hemodynamic measures were stable (minimum of one hour). Ventilator rate was adjusted to keep the partial arterial CO2 between 35 and 45 mmHg as determined by periodic arterial blood gas analysis. Mean systemic arterial pressure (MAP), systemic systolic arterial pressure, heart rate, and percutaneous oxygen saturation were continuously measured and recorded throughout the experiment with a Hewlett Packard 78833B monitor (Hewlett Packard Co., Palo Alto, CA)[15]–[17].
as §2, §3
as §4, with “MA, USA). […]” for “MA, USA).”

[7] = 0.4IU/kg IO vasopressin, vs baseline
[8] = 0.4IU/kg IV vasopressin (control)

SMILES: NC(=O)CC[C@@H]1NC(=O)[C@H](Cc2ccccc2)NC(=O)[C@H](Cc2ccc(O)cc2)NC(=O)[C@@H](N)CSSC[C@@H](C(=O)N2CCC[C@H]2C(=O)N[C@@H](CCCN=C(N)N)C(=O)NCC(N)=O)NC(=O)[C@H](CC(N)=O)NC1=O [vasopressin]
- 24 h survival [1]: 80%
- rate of survival to hospital admission [2]: 29%
- rate of survival to discharge [2]: 5%
- plasma vasopressin concentrations compared to IV vasopressin ([3]; 4IU/kg ETT vasopressin, two minutes after drug administration): significantly lower
- plasma vasopressin concentrations compared to IV vasopressin ([3]; 8IU/kg ETT vasopressin, three minutes after drug administration): significantly lower
- plasma concentrations compared to IV vasopressin ([3]; 8IU/kg IN vasopressin, 1-10 min): significantly lower plasma concentrations at all measured time points
- plasma vasopressin concentrations compared to IV vasopressin ([3]; 16IU/kg ETT vasopressin, five minutes after drug administration): significantly lower
- plasma concentrations compared to IV vasopressin ([3]; 16IU/kg IN vasopressin, 1-10 min): significantly lower plasma concentrations at all measured time points
- plasma concentrations compared to IV vasopressin ([3]; 32IU/kg IN vasopressin, 10-minutes after drug administration): comparable
- Tmax compared to IV vasopressin ([3]; 32IU/kg IN vasopressin): significantly higher
- Tmax compared to IV vasopressin ([3]; all ETT vasopressin doses (4, 8, 16IU/kg)): significantly higher
- plasma vasopressin concentrations compared to IV vasopressin ([3]; any IO vasopressin dose (0.2, 0.4, or 0.8IU/kg) vs 0.4IU/kg IV): no differences
- pharmacokinetic parameters (Cmax, AUC, Tmax, clearance, half-life), IV vs IO ([3]; any IO vasopressin dose vs 0.4IU/kg IV): comparable
- Cmax ([3]; endotracheal, 4IU/kg ETT vasopressin, n = 5, p < 0.0001 vs IV): 0.958 ng/mL
- Cmax ([3]; inhaled or intranasal, 8IU/kg IN vasopressin, n = 3, p < 0.0001 vs IV): 0.384 ng/mL
- Cmax ([3]; inhaled or intranasal, 16IU/kg IN vasopressin, n = 3, p < 0.0001 vs IV): 0.399 ng/mL
- Cmax ([3]; 0.4IU/kg IV vasopressin (control), n = 5): 2.25 ng/mL
- achieved ROSC [4]: 3/4
- survived > 24 h [4]: 2/4
- survived to hospital discharge [4]: 1/4
- base excess and lactate concentrations compared to 0.4IU/kg IV vasopressin [5]: significantly higher
- time after drug administration for which cardiac output significantly decreased ([6]; 0.2IU/kg IO vasopressin): one
- carotid blood flow compared to IV vasopressin ([6]; 0.2IU/kg IO vasopressin, for four minutes, vs 0.4IU/kg IV): significantly higher
- time for which MAP significantly increased ([6]; 0.2IU/kg IO vasopressin, vs baseline): two minutes
- time post-drug administration for which carotid blood flow was decreased ([6]; 0.2IU/kg IO vasopressin, comparable to baseline from three to 10 min): two
- time after drug administration for which cardiac output significantly decreased ([6]; 0.4IU/kg IO vasopressin): two
- ejection fraction ([6]; 0.4IU/kg IO vasopressin, p = 0.042 vs IV): 8.4 (7.7–9.8) %
- time for which MAP significantly increased [6, 7]: five minutes
- time post-drug administration for which carotid blood flow significantly decreased [6, 7]: five
- cardiac output [6, 8]: 193.1 (170.3–365.8) mL/kg/min
- ejection fraction [6, 8]: 23.3 (22.5–32.6) %
- time for which MAP significantly increased ([6]; 0.4IU/kg IV vasopressin, vs baseline): five minutes
- MAP and dP/dT minimum, IV vasopressin compared to all IN vasopressin doses ([6]; 0.4IU/kg IV vs 8, 16, 32IU/kg IN): significantly higher
- time for which MAP significantly increased ([6]; 0.8IU/kg IO vasopressin, vs baseline): five minutes
- dP/dT minimum compared to IV vasopressin ([6]; 4IU/kg ETT vasopressin vs 0.4IU/kg IV): significantly lower
- cardiac output ([6]; 4IU/kg ETT vasopressin, p = 0.045 vs IV): 466 (394–558) mL/kg/min
- hemodynamic response ([6]; 4IU/kg IN vasopressin, preliminary, doses then increased): lack of hemodynamic response
- carotid blood flow, IN vasopressin doses compared to IV vasopressin ([6]; 8, 16, 32IU/kg IN vs 0.4IU/kg IV): higher
- dP/dT minimum compared to IV vasopressin ([6]; 16IU/kg ETT vasopressin vs 0.4IU/kg IV): significantly lower
- heart rate, dP/dT maximum or minimum compared to baseline values or IV vasopressin ([6]; any IO-administered vasopressin dose (0.2, 0.4, 0.8IU/kg)): no significant changes
- changes from baseline in heart rate, carotid blood flow, cardiac output, ejection fraction, stroke volume, dP/dT maximum or minimum ([6]; any doses within the IN route (8, 16, 32IU/kg)): no changes
- changes from baseline in heart rate, carotid blood flow, cardiac output, ejection fraction, stroke volume, dP/dT maximum or minimum ([6]; any vasopressin dose administered endotracheally (4, 8, 16IU/kg)): no changes from baseline

SMILES: CNC[C@H](O)c1ccc(O)c(O)c1 [epinephrine]
- 24 h survival [1]: 30%
- rate of survival to hospital admission [2]: 20%
- rate of survival to discharge [2]: 2%
